“And” between values parts separate entries of the source, which are not always exact repeats. Equal values may be shown once.
How the values were obtained:
Type in all cases: in vivo, human
[1] = system: myelofibrosis; assay: SIMPLIFY-1 Phase 3 trial: total symptom score (TSS) response at week 24; conditions: for TSS Responders / TSS proportion (Wilson 95% CI) / TSS Absolute risk difference (Newcombe 95% CI): SIMPLIFY 1, 24 weeks; for TSS Absolute risk difference (Newcombe 95% CI): MMB vs Control; for TSS response rate: SIMPLIFY 1, week 24
Protocol: In the SIMPLIFY-1 trial (NCT01969838), the efficacy and safety of MMB versus ruxolitinib (RUX) was studied in patients with myelofibrosis who were naïve to treatment with a JAK inhibitor and a platelet count of ≥50×10^9/L. Patients (N=432) with high risk or intermediate-2 risk or symptomatic intermediate-1 risk myelofibrosis received 24 weeks of treatment with 200 mg MMB once daily or 20 mg RUX twice a day (or per label), after which all patients could receive open-label momelotinib. […] The primary endpoint was a reduction by at least 35% in the spleen volume at 24 weeks compared with baseline.
(§1) FIG. 8A: SIMPLIFY-1 study of MMB in a first line population previously untreated with JAKi. For SIMPLIFY-1, the goal was non-inferiority over ruxolitinib (RUX) (MMB: N=215 subjects, and RUX: N=217 subjects). FIG. 8B: SIMPLIFY-2 study of second line population of anemic or thrombocytopenic subjects previously treated with RUX (red blood cell (RBC) transfusions on RUX=64%. RUX dose adjustment for: thrombocytopenia=21%; anemia/hematoma=35%). For SIMPLIFY-2, the goal was superiority over best available treatment (BAT) (MMB: N=104 subjects, and BAT: N=52 subjects). In both SIMPLIFY-1 and SIMPLIFY: Primary endpoint: >=35% reduction in spleen volume at 24 weeks. Secondary endpoints: Total symptom score (TSS) response at 24 weeks. Effects on RBC transfusion requirements.
The SIMPLIFY 1 clinical trial data was reanalyzed for subgroups of subjects having particular baseline platelet counts in the MMB versus RUX arms of the study.
Patient data was analyzed according to the following baseline platelet count (PLT) subgroups and in particular according to the threshold PLT of 150×10^9/L: 1) PLT<50×10^9/L; 2) 50×10^9/L≤PLT<100×10^9/L; 3) 100×10^9/L≤PLT<150×10^9/L. The reanalyzed data is presented in Table 13 (SIMPLIFY 1). Selected data is also illustrated in the following figures.

[2] = system: myelofibrosis; assay: SIMPLIFY-2 Phase 3 trial: total symptom score (TSS) response; conditions: for TSS Responders / TSS proportion (Wilson 95% CI) / TSS Absolute risk difference (Newcombe 95% CI): SIMPLIFY 2; for TSS Absolute risk difference (Newcombe 95% CI): MMB vs Control
Text: In the SIMPLIFY-2 trial (NCT02101268), the efficacy and safety of MMB was studied in anemic or thrombocytopenic subjects with myelofibrosis who were previously treated with ruxolitinib (RUX). […] Specifically, anemic or thrombocytopenic myelofibrosis patients who had and were previously treated with (RUX) (for at least 28 days) were studied over 24 weeks for response to MMB versus best available treatment (BAT), primarily RUX (89% of patients) but alternatively no treatment or other standard interventions, after which period all patients could receive extended MMB treatment. Previously treated RUX patients who either required red blood cell transfusions or RUX dose reduction with grade 3 thrombocytopenia, anemia, and/or bleeding at grade 3 or worse, with palpable spleen of at least 5 cm and without grade 2 or greater peripheral neuropathy were included in the trial. There was no lower limit for the required baseline platelet count. The primary endpoint was a reduction by at least 35% in the spleen volume at 24 weeks compared with baseline.
as §1
The SIMPLIFY 2 clinical trial data was reanalyzed for subgroups of subjects having particular baseline platelet counts in the MMB versus BAT arms of the study.
Patient data was analyzed according to the following baseline platelet count (PLT) subgroups and in particular according to a threshold PLT of 150×10^9/L: 1) PLT<50×10^9/L; 2) 50×10^9/L≤PLT<100×10^9/L; 3) 100×10^9/L≤PLT<150×10^9/L. The reanalyzed data is presented in Table 14 (SIMPLIFY 2).

[3] = system: myelofibrosis; assay: Translational biology Phase 2 study (GS-US-352-1672) in transfusion dependent MF patients
Text: In a translational biology study, we determined the impact of momelotinib on plasma hepcidin, markers of iron storage and availability, erythropoiesis, and inflammation to explore mechanisms of the favorable effects of momelotinib on MF-associated anemia and transfusion independence. See Oh et al. “Hepcidin Suppression by Momelotinib Is Associated With Increased Iron Availability and Erythropoiesis in Transfusion-Dependent Myelofibrosis Patients”, Abstract #4282: Presented at ASH 60th Annual Meeting & Exposition: Dec. 1-4, 2018, San Diego, Calif., the disclosure of which is herein incorporated by reference.
Population: Primary MF (PMF), post-polycythemia vera MF (post-PV MF), or post-essential thrombocythemia MF (post-ET MF). Requiring MF therapy (in the opinion of the investigator). High risk or intermediate-2 (DIPSS). Transfusion Dependent (TD) at baseline. [defined as ≥4 U red blood cell (RBC) transfusion in the 8 weeks prior to the first dose of MMB]. Goal: Exploratory translational biology study (MMB: N=41 subjects). Objectives: Primary objective: determine the transfusion independence response rate (TI; ≥12 week & ≥8 week) for TD subjects with MF treated with momelotinib. Secondary objectives: Evaluate baseline levels and changes in markers of iron metabolism; Assess inhibition of JAK1/2; Evaluate momelotinib pharmacokinetics in transfusion-dependent subjects with MF; and Evaluate changes in circulating cytokine and inflammatory markers.

## Cl.N#CCNC(=O)c1ccc(-c2ccnc(Nc3ccc(N4CCOCC4)cc3)n2)cc1 [MMB, N-(cyanomethyl)-4-(2-(4-morpholinophenylamino)pyrimidin-4-yl)benzamide]
[1]; 50 ≤ PLT < 100 ×10^9/L
  TSS Responders: 6
  TSS proportion (Wilson 95% CI): 0.33
  TSS Absolute risk difference (Newcombe 95% CI): 0.12
[1]; 100 ≤ PLT < 150 ×10^9/L
  TSS Responders: 7
  TSS proportion (Wilson 95% CI): 0.24
  TSS Absolute risk difference (Newcombe 95% CI): −0.15
[1]; ITT
  TSS Responders: 60
  TSS proportion (Wilson 95% CI): 0.28
  TSS Absolute risk difference (Newcombe 95% CI): −0.13
[1]; ITT, all patients
  TSS response rate: 28%
[1]; ITT, platelets 50-100 (subgroup 2)
  TSS response rate: 33%
[1]; ITT, platelets 100-150 (subgroup 3)
  TSS response rate: 24%
[1]; baseline TSS ≥ 6, all patients
  TSS response rate: 33%
[1]; baseline TSS ≥ 6, platelets 50-100 (subgroup 2)
  TSS response rate: 36%
[1]; baseline TSS ≥ 6, platelets 100-150 (subgroup 3)
  TSS response rate: 32%
[1]; baseline TSS ≥ 10, all patients
  TSS response rate: 33%
[1]; baseline TSS ≥ 10, platelets 50-100 (subgroup 2)
  TSS response rate: 36%
[1]; baseline TSS ≥ 10, platelets 100-150 (subgroup 3)
  TSS response rate: 32%
[1]; SIMPLIFY-1, overall
  Total Symptom Score (TSS) response: 28.4%
[1]; SIMPLIFY-1, MMB vs RUX
  TSS Noninferior Proportion Difference: 0.00 (−0.08, 0.08)
[2]; SIMPLIFY 2, second line patients
  TSS symptom response: 26.2%
[2]; 50 ≤ PLT < 100 ×10^9/L
  TSS Responders: 9
  TSS proportion (Wilson 95% CI): 0.27
  TSS Absolute risk difference (Newcombe 95% CI): 0.27
[2]; 100 ≤ PLT < 150 ×10^9/L
  TSS Responders: 6
  TSS proportion (Wilson 95% CI): 0.25
  TSS Absolute risk difference (Newcombe 95% CI): 0.25
[2]; ITT
  TSS Responders: 27
  TSS proportion (Wilson 95% CI): 0.26
  TSS Absolute risk difference (Newcombe 95% CI): 0.20
[2]; PLT < 50 ×10^9/L
  TSS Responders: 1
  TSS proportion (Wilson 95% CI): 0.11
  TSS Absolute risk difference (Newcombe 95% CI): −0.03
[3]; Phase 2 GS-US-352-1672, TD subjects, N=41
  ≥8 week transfusion independence rate: 39.0%
[3]; Phase 2 GS-US-352-1672, TD subjects, N=41, listed as momelotinib
  ≥12 week transfusion independence rate: 34% and 34.1%
[3]; after momelotinib treatment initiation, FIG. 13
  time to increased serum iron and transferrin: ≤ 2 weeks
[3]; any 8 week period, units of RBC, ≥2 unit decrease
  TI-NR patients with decreased transfusion burden (≥50%): 77.8%
[3]; post-MMB administration, FIG. 11
  effect on hepcidin: consistently decreased hepcidin
